{
  "source": "paper PMC5079767",
  "about": "(Bioorganic & medicinal chemistry letters, 2016)",
  "key": {"[1]": {"system": "Escherichia coli, Bacillus subtilis, Mycobacterium smegmatis", "settings": "cited from earlier work"}, "[2]": {"target": "cysteine adenylation domain of HMWP2 (residues 1–1491) (Yersinia pestis, UniProt A0A2S9PH42)", "sequence (A0A2S9PH42 1-1491 limits assumed)": "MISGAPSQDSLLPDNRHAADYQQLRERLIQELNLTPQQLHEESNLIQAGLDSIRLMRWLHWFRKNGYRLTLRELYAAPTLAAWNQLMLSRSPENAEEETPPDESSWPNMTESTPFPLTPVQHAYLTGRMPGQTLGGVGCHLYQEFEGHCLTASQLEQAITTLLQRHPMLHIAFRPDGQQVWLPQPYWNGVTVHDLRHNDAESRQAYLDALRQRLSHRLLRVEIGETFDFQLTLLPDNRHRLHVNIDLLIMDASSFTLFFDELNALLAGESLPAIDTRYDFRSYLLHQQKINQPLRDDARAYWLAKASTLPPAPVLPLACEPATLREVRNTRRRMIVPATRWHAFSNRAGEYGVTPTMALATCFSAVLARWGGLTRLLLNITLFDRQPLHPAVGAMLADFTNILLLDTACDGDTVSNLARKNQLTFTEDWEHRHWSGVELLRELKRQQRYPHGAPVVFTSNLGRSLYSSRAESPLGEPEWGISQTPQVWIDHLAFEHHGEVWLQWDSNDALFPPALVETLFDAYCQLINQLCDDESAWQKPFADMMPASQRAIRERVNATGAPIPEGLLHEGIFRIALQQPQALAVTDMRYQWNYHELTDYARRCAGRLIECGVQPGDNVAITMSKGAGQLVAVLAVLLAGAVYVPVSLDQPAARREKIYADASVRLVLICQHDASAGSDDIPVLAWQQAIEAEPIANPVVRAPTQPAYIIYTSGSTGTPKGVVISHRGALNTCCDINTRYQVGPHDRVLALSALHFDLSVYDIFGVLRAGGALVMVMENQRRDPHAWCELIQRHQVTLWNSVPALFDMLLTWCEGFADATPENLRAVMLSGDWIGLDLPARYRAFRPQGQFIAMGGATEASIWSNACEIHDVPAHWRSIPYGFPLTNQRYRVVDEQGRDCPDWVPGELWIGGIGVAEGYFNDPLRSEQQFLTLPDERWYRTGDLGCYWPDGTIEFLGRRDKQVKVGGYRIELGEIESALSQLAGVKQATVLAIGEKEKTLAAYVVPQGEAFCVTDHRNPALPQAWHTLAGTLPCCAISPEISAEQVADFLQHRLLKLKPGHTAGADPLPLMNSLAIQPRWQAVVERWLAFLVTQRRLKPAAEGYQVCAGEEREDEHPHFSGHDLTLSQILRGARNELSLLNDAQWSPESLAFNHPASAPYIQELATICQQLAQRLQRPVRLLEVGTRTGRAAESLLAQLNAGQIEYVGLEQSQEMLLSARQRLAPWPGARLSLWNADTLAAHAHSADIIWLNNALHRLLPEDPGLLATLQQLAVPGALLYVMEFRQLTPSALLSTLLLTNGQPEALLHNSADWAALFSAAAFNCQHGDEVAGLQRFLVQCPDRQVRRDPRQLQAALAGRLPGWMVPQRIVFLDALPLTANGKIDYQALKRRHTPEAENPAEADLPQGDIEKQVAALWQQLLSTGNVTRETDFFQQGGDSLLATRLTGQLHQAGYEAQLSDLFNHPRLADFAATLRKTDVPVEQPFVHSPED", "type": "biochemical"}, "[3]": {"system": "aminoacyl-tRNA synthetases", "type": "biochemical, rabbit"}, "Y. pestis [4]": {"system": "Y. pestis", "type": "cell-based, Yersinia pestis"}, "Y. pestis [5]": {"system": "Y. pestis", "settings": "cited from earlier work"}},
  "note": "Where two headings read alike, the source gives them in different places.",
  "data": [
    {"compound": "C[C@H](N)C(=O)NS(=O)(=O)OC[C@H]1O[C@@H](n2cnc3c(N)ncnc32)[C@H](O)[C@@H]1O", "note": "[4a, alanyl-AMS]", "values": [
      {"measurement": "penetration of bacteria above the limits of detection", "setting": "[1]; E. coli, B. subtilis, M. smegmatis", "value": "did not penetrate"}
    ]},
    {"compound": "C[C@H](O)C(=O)NS(=O)(=O)OC[C@H]1O[C@@H](n2cnc3c(N)ncnc32)[C@H](O)[C@@H]1O", "note": "[4b, lactyl-AMS]", "values": [
      {"measurement": "intracellular concentration", "setting": "[1]; all three strains (E. coli, B. subtilis, M. smegmatis), 100 µM extracellular concentration applied", "value": "28 to 53", "unit": "µM"}
    ]},
    {"compound": "Nc1ncnc2c1ncn2[C@@H]1O[C@H](COS(=O)(=O)NC(=O)[C@@H](N)CS)[C@@H](O)[C@H]1O", "note": "[4c, cysteyl-AMS]", "values": [
      {"measurement": "increase in HMWP2 inhibition on inclusion of β-thio group", "setting": "[2]", "value": "≈ 2 orders of magnitude"},
      {"measurement": "increase in inhibitory potency by β-thiol side chain", "setting": "[2]", "value": "30–60 fold"}
    ]},
    {"compound": "Nc1ncnc2c1ncn2[C@@H]1O[C@H](COS(=O)(=O)NC(=O)[C@@H](O)CS)[C@@H](O)[C@H]1O", "note": "[4d, α-hydroxy-cysteyl-AMS]", "values": [
      {"measurement": "IC50 relative to alanyl-AMS (4a)", "setting": "[2]", "value": "≤ 15", "unit": "fold"},
      {"measurement": "increase in HMWP2 inhibition on inclusion of β-thio group", "setting": "[2]", "value": "≈ 2 orders of magnitude"},
      {"measurement": "increase in inhibitory potency by β-thiol side chain", "setting": "[2]", "value": "30–60 fold"}
    ]},
    {"compound": "Nc1ncnc2c1nc1n2[C@@H]2O[C@H](COS(=O)(=O)NC(=O)[C@@H](N)CCC1)[C@@H](O)[C@H]2O", "note": "[5a, cyclo-alanyl-AMS]", "values": [
      {"measurement": "inhibitory activity in in vitro translation assay", "setting": "[3]", "value": "inactive"},
      {"measurement": "inhibition of yersiniabactin production", "setting": "Y. pestis [4]", "value": "did not inhibit"}
    ]},
    {"compound": "Nc1ncnc2c1nc1n2[C@@H]2O[C@H](COS(=O)(=O)NC(=O)[C@@H](O)CCC1)[C@@H](O)[C@H]2O", "note": "[5b, cyclo-lactyl-AMS]", "values": [
      {"measurement": "inhibitory activity in in vitro translation assay", "setting": "[3]", "value": "inactive"}
    ]},
    {"compound": "salicyl-AMS", "values": [
      {"measurement": "inhibition of yersiniabactin production", "setting": "Y. pestis [5]", "value": "blocks yersiniabactin production"}
    ]}
  ]
}
